Assay results reported in the NIST ThermoML archive (doi:10.1021/je025649t).
± gives the expanded uncertainty stated by the source.

How the values were obtained:
[1] = xn = mol fraction of the nth substance listed; settings: 298.15 K, 101 kPa, Liquid, Vibrating tube method
[2] = refractive index (Na D-line) (dimensionless); xn = mol fraction of the nth substance listed; settings: 298.15 K, 101 kPa, Liquid, refractometer
[3] = heat capacity at constant pressure per volume; xn = mol fraction of the nth substance listed; settings: 298.15 K, 101 kPa, Liquid, Flow calorimetry
[4] = excess molar enthalpy (molar enthalpy of mixing); xn = mol fraction of the nth substance listed; settings: 298.15 K, 101 kPa, Liquid, Flow calorimetry
[5] = 298.15 K; 101.33 kPa; Liquid; Vibrating tube method
[6] = molar heat capacity at constant pressure; settings: 298.15 K; 101.33 kPa; Liquid; Flow calorimetry
[7] = refractive index (Na D-line) (dimensionless); settings: 298.15 K; 101.33 kPa; Liquid; refractometer

CCCCCC(C)=O [2-heptanone] + C1CCOCC1
Settings | excess molar enthalpy [kcal/mol] | heat capacity [J/K/m3] | mass density [kg/m3] | refractive index
[1], x2 = 0.0796 | – | – | 814.73 ± 0.81 | –
[1], x2 = 0.1679 | – | – | 819.18 ± 0.77 | –
[1], x2 = 0.2235 | – | – | 822.12 ± 0.75 | –
[1], x2 = 0.3185 | – | – | 827.4 ± 0.72 | –
[1], x2 = 0.3518 | – | – | 829.33 ± 0.7 | –
[1], x2 = 0.4045 | – | – | 832.49 ± 0.68 | –
[1], x2 = 0.4377 | – | – | 834.53 ± 0.67 | –
[1], x2 = 0.4617 | – | – | 836.04 ± 0.66 | –
[1], x2 = 0.5166 | – | – | 839.61 ± 0.64 | –
[1], x2 = 0.5455 | – | – | 841.54 ± 0.63 | –
[1], x2 = 0.5907 | – | – | 844.65 ± 0.61 | –
[1], x2 = 0.6312 | – | – | 847.53 ± 0.6 | –
[1], x2 = 0.6667 | – | – | 850.14 ± 0.58 | –
[1], x2 = 0.7077 | – | – | 853.23 ± 0.57 | –
[1], x2 = 0.7101 | – | – | 853.42 ± 0.57 | –
[1], x2 = 0.7907 | – | – | 859.84 ± 0.54 | –
[1], x2 = 0.8696 | – | – | 866.59 ± 0.5 | –
[1], x2 = 0.9539 | – | – | 874.37 ± 0.47 | –
[2], x2 = 0.0855 | – | – | – | 1.4075 ± 0.00039
[2], x2 = 0.1588 | – | – | – | 1.4081 ± 0.00037
[2], x2 = 0.2375 | – | – | – | 1.40879 ± 0.00036
[2], x2 = 0.3113 | – | – | – | 1.40947 ± 0.00034
[2], x2 = 0.3532 | – | – | – | 1.40988 ± 0.00033
[2], x2 = 0.3936 | – | – | – | 1.41029 ± 0.00033
[2], x2 = 0.4287 | – | – | – | 1.41065 ± 0.00032
[2], x2 = 0.4658 | – | – | – | 1.41105 ± 0.00031
[2], x2 = 0.5486 | – | – | – | 1.41198 ± 0.0003
[2], x2 = 0.5896 | – | – | – | 1.41246 ± 0.00029
[2], x2 = 0.6261 | – | – | – | 1.41291 ± 0.00028
[2], x2 = 0.6665 | – | – | – | 1.41343 ± 0.00027
[2], x2 = 0.7046 | – | – | – | 1.41393 ± 0.00026
[2], x2 = 0.7855 | – | – | – | 1.41507 ± 0.00025
[2], x2 = 0.8677 | – | – | – | 1.41633 ± 0.00023
[2], x2 = 0.9473 | – | – | – | 1.41768 ± 0.00022
[3], x2 = 0.0687 | – | 1711900 ± 2700 | – | –
[3], x2 = 0.1469 | – | 1699600 ± 2600 | – | –
[3], x2 = 0.2226 | – | 1687400 ± 2600 | – | –
[3], x2 = 0.3113 | – | 1672200 ± 2600 | – | –
[3], x2 = 0.3855 | – | 1659100 ± 2600 | – | –
[3], x2 = 0.4613 | – | 1645000 ± 2500 | – | –
[3], x2 = 0.5449 | – | 1628000 ± 2500 | – | –
[3], x2 = 0.6288 | – | 1610700 ± 2500 | – | –
[3], x2 = 0.7034 | – | 1594700 ± 2500 | – | –
[3], x2 = 0.7801 | – | 1576700 ± 2400 | – | –
[3], x2 = 0.8581 | – | 1558500 ± 2400 | – | –
[3], x2 = 0.9388 | – | 1538500 ± 2400 | – | –
[4], x2 = 0.1 | 0.00354 ± 0.000215 | – | – | –
[4], x2 = 0.15 | 0.0053 ± 0.000232 | – | – | –
[4], x2 = 0.2 | 0.00696 ± 0.000239 | – | – | –
[4], x2 = 0.25 | 0.0082 ± 0.000263 | – | – | –
[4], x2 = 0.3 | 0.00946 ± 0.000263 | – | – | –
[4], x2 = 0.35 | 0.0106 ± 0.000263 | – | – | –
[4], x2 = 0.4 | 0.0118 ± 0.000287 | – | – | –
[4], x2 = 0.45 | 0.0129 ± 0.000287 | – | – | –
[4], x2 = 0.5 | 0.0138 ± 0.000287 | – | – | –
[4], x2 = 0.55 | 0.0144 ± 0.000311 | – | – | –
[4], x2 = 0.6 | 0.0147 ± 0.000311 | – | – | –
[4], x2 = 0.65 | 0.0146 ± 0.000311 | – | – | –
[4], x2 = 0.7 | 0.0142 ± 0.000287 | – | – | –
[4], x2 = 0.75 | 0.0134 ± 0.000287 | – | – | –
[4], x2 = 0.8 | 0.012 ± 0.000287 | – | – | –
[4], x2 = 0.85 | 0.0103 ± 0.000263 | – | – | –
[4], x2 = 0.9 | 0.00793 ± 0.000263 | – | – | –

O=C1CCCCC1 [cyclohexanone] + C1CCOCC1
[4]
Settings | excess molar enthalpy [kcal/mol]
x2 = 0.1 | 0.00647 ± 0.000239
x2 = 0.15 | 0.00919 ± 0.000263
x2 = 0.2 | 0.0117 ± 0.000287
x2 = 0.25 | 0.0139 ± 0.000287
x2 = 0.3 | 0.016 ± 0.000311
x2 = 0.35 | 0.0176 ± 0.000335
x2 = 0.4 | 0.0189 ± 0.000335
x2 = 0.45 | 0.0198 ± 0.000335
x2 = 0.5 | 0.0207 ± 0.000335
x2 = 0.55 | 0.0214 ± 0.000359
x2 = 0.6 | 0.0215 ± 0.000359
x2 = 0.65 | 0.0209 ± 0.000359
x2 = 0.7 | 0.0199 ± 0.000335
x2 = 0.75 | 0.0184 ± 0.000335
x2 = 0.8 | 0.0164 ± 0.000311
x2 = 0.85 | 0.0137 ± 0.000311
x2 = 0.9 | 0.01 ± 0.000263

CCCC(C)=O [pentan-2-one] + C1CCOCC1
Settings | excess molar enthalpy [kcal/mol] | heat capacity [J/K/m3] | mass density [kg/m3] | refractive index
[1], x2 = 0.0708 | – | – | 806.39 ± 0.42 | –
[1], x2 = 0.1523 | – | – | 812.26 ± 0.43 | –
[1], x2 = 0.2361 | – | – | 818.39 ± 0.43 | –
[1], x2 = 0.3015 | – | – | 823.22 ± 0.43 | –
[1], x2 = 0.3529 | – | – | 827.06 ± 0.43 | –
[1], x2 = 0.3858 | – | – | 829.54 ± 0.43 | –
[1], x2 = 0.4384 | – | – | 833.53 ± 0.43 | –
[1], x2 = 0.4683 | – | – | 835.82 ± 0.44 | –
[1], x2 = 0.5046 | – | – | 838.6 ± 0.44 | –
[1], x2 = 0.5548 | – | – | 842.49 ± 0.44 | –
[1], x2 = 0.5825 | – | – | 844.66 ± 0.44 | –
[1], x2 = 0.6397 | – | – | 849.17 ± 0.44 | –
[1], x2 = 0.6747 | – | – | 851.95 ± 0.44 | –
[1], x2 = 0.7079 | – | – | 854.61 ± 0.44 | –
[1], x2 = 0.7776 | – | – | 860.26 ± 0.45 | –
[1], x2 = 0.8646 | – | – | 867.44 ± 0.45 | –
[1], x2 = 0.9428 | – | – | 874.02 ± 0.45 | –
[2], x2 = 0.0811 | – | – | – | 1.39011 ± 0.00021
[2], x2 = 0.1565 | – | – | – | 1.39223 ± 0.00021
[2], x2 = 0.2425 | – | – | – | 1.39468 ± 0.00021
[2], x2 = 0.3122 | – | – | – | 1.39668 ± 0.00021
[2], x2 = 0.3557 | – | – | – | 1.39796 ± 0.00021
[2], x2 = 0.4037 | – | – | – | 1.39937 ± 0.00021
[2], x2 = 0.4406 | – | – | – | 1.40047 ± 0.00021
[2], x2 = 0.4757 | – | – | – | 1.40153 ± 0.00021
[2], x2 = 0.5107 | – | – | – | 1.40259 ± 0.00021
[2], x2 = 0.5449 | – | – | – | 1.40364 ± 0.00021
[2], x2 = 0.5933 | – | – | – | 1.40514 ± 0.00021
[2], x2 = 0.6252 | – | – | – | 1.40614 ± 0.00021
[2], x2 = 0.6681 | – | – | – | 1.4075 ± 0.00021
[2], x2 = 0.708 | – | – | – | 1.40878 ± 0.00021
[2], x2 = 0.7915 | – | – | – | 1.4115 ± 0.00021
[2], x2 = 0.8776 | – | – | – | 1.41439 ± 0.00021
[2], x2 = 0.9411 | – | – | – | 1.41658 ± 0.00021
[3], x2 = 0.0611 | – | 1698200 ± 2600 | – | –
[3], x2 = 0.1398 | – | 1685200 ± 2600 | – | –
[3], x2 = 0.2219 | – | 1670700 ± 2600 | – | –
[3], x2 = 0.3029 | – | 1656100 ± 2600 | – | –
[3], x2 = 0.3789 | – | 1641900 ± 2500 | – | –
[3], x2 = 0.457 | – | 1627300 ± 2500 | – | –
[3], x2 = 0.5376 | – | 1611700 ± 2500 | – | –
[3], x2 = 0.6153 | – | 1596800 ± 2500 | – | –
[3], x2 = 0.698 | – | 1580600 ± 2400 | – | –
[3], x2 = 0.7772 | – | 1565100 ± 2400 | – | –
[3], x2 = 0.8503 | – | 1550300 ± 2400 | – | –
[3], x2 = 0.9311 | – | 1533300 ± 2400 | – | –
[4], x2 = 0.1 | 0.00636 ± 0.000239 | – | – | –
[4], x2 = 0.15 | 0.0092 ± 0.000263 | – | – | –
[4], x2 = 0.2 | 0.0119 ± 0.000287 | – | – | –
[4], x2 = 0.25 | 0.0144 ± 0.000311 | – | – | –
[4], x2 = 0.3 | 0.0164 ± 0.000311 | – | – | –
[4], x2 = 0.35 | 0.0182 ± 0.000335 | – | – | –
[4], x2 = 0.4 | 0.0197 ± 0.000335 | – | – | –
[4], x2 = 0.45 | 0.0209 ± 0.000359 | – | – | –
[4], x2 = 0.5 | 0.0218 ± 0.000359 | – | – | –
[4], x2 = 0.55 | 0.0222 ± 0.000359 | – | – | –
[4], x2 = 0.6 | 0.0222 ± 0.000359 | – | – | –
[4], x2 = 0.65 | 0.0219 ± 0.000359 | – | – | –
[4], x2 = 0.7 | 0.0212 ± 0.000359 | – | – | –
[4], x2 = 0.75 | 0.0197 ± 0.000335 | – | – | –
[4], x2 = 0.8 | 0.0174 ± 0.000335 | – | – | –
[4], x2 = 0.85 | 0.0145 ± 0.000311 | – | – | –
[4], x2 = 0.9 | 0.0107 ± 0.000287 | – | – | –

C1CCOCC1 [tetrahydropyran]
Settings | mass density [kg/m3] | molar heat capacity at constant pressure [J/K/mol] | refractive index
[5] | 878.91 | – | –
[6] | – | 149.32 | –
[7] | – | – | 1.41865
